According to PubChem BioAssay (NCI):
Where “and” joins values, the source holds several entries; their conditions need not be identical. Equal entries are not always repeated.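 These data come from cells grown in 96-well plates and exposed to compound for 48 hours at five concentrations. GI50 marks 50% less growth. TGI denotes the concentration required for complete inhibition of growth.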

Columns and labels:
Assay in all cases: inhibition of tumour cell growth, NCI panel, 48 h
SNB-19 CNS = tested on: SNB-19 CNS
NCI-H522 lung = tested on: NCI-H522 lung
SK-MEL-2 melanoma = tested on: SK-MEL-2 melanoma
MOLT-4 leukemia = tested on: MOLT-4 leukemia
UO-31 renal = tested on: UO-31 renal
HL-60(TB) leukemia = tested on: HL-60(TB) leukemia
UACC-62 melanoma = tested on: UACC-62 melanoma
HOP-92 NSCLC = tested on: HOP-92 NSCLC
SF-539 CNS = tested on: SF-539 CNS
OVCAR-8 ovarian = tested on: OVCAR-8 ovarian

Structure (SMILES)	GI50 (SNB-19 CNS)	TGI (SNB-19 CNS)	GI50 (NCI-H522 lung)	GI50 (SK-MEL-2 melanoma)	TGI (SK-MEL-2 melanoma)	GI50 (MOLT-4 leukemia) [µM]	TGI (MOLT-4 leukemia) [µM]	GI50 (UO-31 renal)	TGI (UO-31 renal)	GI50 (HL-60(TB) leukemia)	TGI (HL-60(TB) leukemia)	GI50 (UACC-62 melanoma) [µM]	TGI (UACC-62 melanoma) [µM]	GI50 (HOP-92 NSCLC)	TGI (HOP-92 NSCLC)	GI50 (SF-539 CNS)	TGI (SF-539 CNS)	GI50 (OVCAR-8 ovarian)	TGI (NCI-H522 lung) [µM]	TGI (OVCAR-8 ovarian) [µM]
COc1ccc(Cn2cc(Cn3c(=O)c(-c4nc5ccccc5[nH]4)cc4ccccc43)nn2)c(OC)c1OC	0.423 µM	> 100 µM	0.148 µM and 0.176 µM	0.676 µM	2.21 µM	0.468	> 100	0.576 µM and 0.749 µM	1.78 µM and 4.63 µM	0.114 µM and 0.306 µM	50 µM and > 100 µM	0.672	5.42	0.48 µM and 0.39 µM	1.92 µM and 9.69 µM	0.144 µM and 0.206 µM	0.664 µM and 0.872 µM	0.213 µM and 0.486 µM	–	–
C[C@@]12CCC[C@@](C)(C(=O)O)C1CC[C@@]13CC(=O)[C@@](CO)(CCC12)C3 (some centres not stated)	> 100 µM	> 100 µM	> 100 µM	> 100 µM	> 100 µM	> 100	> 100	> 100 µM	> 100 µM	> 100 µM	> 100 µM	> 100	> 100	> 100 µM	> 100 µM	> 100 µM	> 100 µM	> 100 µM	> 100	> 100
CCN1CCCCC(=N\O)/C(=N/O)CCCC1	–	> 100 µM	–	–	> 100 µM	–	> 100	–	> 100 µM	–	> 100 µM	–	> 100	–	> 100 µM	–	> 100 µM	–	> 100	> 100
CC(C)(C)c1nnc2n(c1=O)N=CC(c1ccc(Br)cc1)S2 (configuration not stated)	51.3 µM	> 100 µM	19.2 µM	25.3 µM	66.1 µM	31.5	> 100	20.7 µM	47.4 µM	39 µM	> 100 µM	17.5	32.7	40.9 µM	> 100 µM	19.7 µM	50.9 µM	34.7 µM	41.7	> 100
CC1(C)CC[C@]2(C(=O)O)CC[C@]3(C)[C@H](CC[C@@H]4[C@@]5(C)CCC(=O)C(C)(C)[C@@H]5CC[C@]43C)[C@H]2[C@H]1OC(=O)C(F)(F)F	13.8 µM	27.9 µM	12.6 µM	14.1 µM	30.9 µM	4.22	22.5	13.7 µM	27 µM	3.16 µM	13.6 µM	6.66	20.3	8.08 µM	22.6 µM	5.34 µM	18.1 µM	12.9 µM	29.1	30.1
COc1cc2c3c(n(CCCNCCN4CCOCC4)c(=O)c2cc1OC)-c1cc2c(cc1C3=O)OCO2	2.23 µM and 0.77 µM	50 µM and > 55.2 µM	2.15 µM	7.78 µM and 3.92 µM	14.7 µM and 19.7 µM	< 0.005	19.7	5.98 µM and 2.19 µM	15.2 µM and > 100 µM	0.321 µM and 2.7 µM	–	1.38	7.58	5.79 µM and 1.26 µM	12.4 µM and 3.92 µM	1.08 µM	3.88 µM	4.37 µM	> 100	17.4
COP1(=S)OCC2CCC[C@@H]2O1 (some centres not stated)	–	> 100 µM	–	–	> 100 µM	–	> 100	–	> 100 µM	–	> 100 µM	–	> 100	–	> 100 µM	–	> 100 µM	–	> 100	> 100
C1C[OH+]CC[OH+]CC[OH+]CC[OH+]CC[OH+]CC[OH+]1.[Cl-].[Ta+5]	24.3 µM	> 100 µM	> 100 µM	> 100 µM	> 100 µM	> 100	> 100	5.02 µM	30.3 µM	> 100 µM	> 100 µM	> 100	> 100	> 100 µM	> 100 µM	> 100 µM	> 100 µM	> 100 µM	> 100	> 100
O=C1C=C(Nc2nc(C(=O)O)cc(=O)[nH]2)c2ccccc2C1=O	–	> 100 µM	–	–	> 100 µM	–	> 100	–	> 100 µM	–	> 100 µM	–	> 100	–	> 100 µM	–	> 100 µM	–	> 100	> 100
O=C1C(=O)c2c(nc3ncccn23)-c2ccccc21	0.247 µM	0.722 µM	0.232 µM	0.243 µM	0.532 µM	0.257	0.711	0.187 µM	0.405 µM	0.247 µM	0.64 µM	0.177	0.326	0.271 µM	1 µM	0.188 µM	0.388 µM	0.306 µM	0.753	1.27
Cc1ccc(-n2c(-c3ccc(Cl)cc3)cs/c2=N\NC(=O)COc2n[nH]c(=O)c3ccccc23)cc1	40 µM	> 100 µM	> 100 µM	> 100 µM	> 100 µM	> 100	> 100	> 100 µM	> 100 µM	> 100 µM	> 100 µM	23.4	> 100	34.6 µM	> 100 µM	19.6 µM	71.8 µM	16.6 µM	> 100	> 100
CC1=N/C(=C\c2cccc3ccccc23)C(=O)O1	–	> 100 µM	–	–	> 100 µM	–	> 100	–	> 100 µM	–	> 100 µM	–	> 100	–	> 100 µM	–	> 100 µM	–	> 100	> 100
COc1ccc2sc3c(NCCCNCCO)nc4ccccc4c3c(=O)c2c1	1.65 µM	3.15 µM	1.74 µM	2.08 µM	4.07 µM	1.93	3.81	1.56 µM	2.99 µM	1.98 µM	3.89 µM	1.7	3.16	1.35 µM	6.74 µM	1.65 µM	3.1 µM	1.65 µM	3.37	3.45
CCOC(=O)c1cnc2c(cnn2CC)c1NN=C(C)C	32.6 µM	> 100 µM	73.2 µM	53.5 µM	> 100 µM	64.7	> 100	23.2 µM	> 100 µM	59 µM	> 100 µM	45.3	> 100	25.3 µM	> 100 µM	74.9 µM	> 100 µM	55.1 µM	> 100	> 100
